Laboratory results published in patent US9670223B2, “Compounds with super-aspirin effects” (SOLVOTRIN THERAPEUTICS LTD., priority 2011, dated 2017).
Like-named read-outs stand apart in the source and are kept apart here. Values belong to the compound of their own block, whether it stands above or below them.

Experiments:
[1] = test system: platelet esterases (pNPA hydrolysis in WP); format: biochemical, human; details: for effect on NPA/PNA activity of WP or lysed platelets: 10-100 μM
Experimental: WP, PRP, PPP or lysed WP and 50 mM TrisHCl pH7.4 were incubated on a 96 well plate at 37° C. for 30 min. PNA at a final concentration of 3 mM was added to the plate and the change in absorbance at 405 nm was measured over a period of 10 min.
NPA hydrolyse activity could be due to CE (EC 3.1.1.1), BuChE, acetylcholinesterase (AChE, EC 3.1.1.7) or paraoxanase/arylesterase (PON, EC 3.1.8.1). To identify which esterases were involved in the hydrolysis of PNA, various inhibitors were incubated with the WP, PRP, PPP or lysed WP and 50 mM TrisHCl pH7.4 for 30 min at 37° C. prior to the addition of the PNA and the measurement of the change in absorbance at 405 nm. Physostigmine (100 μM), a cholinesterase inhibitor was used to check if BuChE/AChE played a role in the hydrolysis of PNA. […] PMSF (10-100 μM) was used to determine if serine proteases played any part in the hydrolysis of PNA by platelets. EDTA a calcium chelator was used to investigate the role played by PON esterases. BNPP a CE inhibitor of was used to investigate if carboxylesterases played a role in hydrolysis of PNA by platelets.

[2] = test system: platelet rich plasma (PRP); experiment: Collagen-induced platelet aggregation in platelet rich plasma (light aggregometry); format: cell-based, human; details: for inhibition of collagen induced aggregation by hydrolysis products: 10-300 μM in PRP, collagen 5 μg/ml
Experimental: (§1) PRP and WP (2.5×10^8 platelets ml^−1) were prepared from blood. Briefly 36 ml whole blood was collected into 4 ml of 3.15% sodium citrate; this was centrifuged at 250 ¥g for 20 min (with gentle acceleration and deceleration). At this point PRP, which had separated from white blood cells and red blood cells, was gently removed. When WP were required this PRP was centrifuged at 700 g for 10 min (with gentle acceleration and deceleration) in the presence of prostacyclin. The platelet-poor plasma (PPP) was removed and the platelet pellet was washed three times with Tyrode's buffer, before being re-suspended in Tyrode's buffer to a concentration of 2.5 ¥108 platelets/ml.
(§2) Platelet aggregation was measured by light aggregometry. […] Aggregation was initiated by the addition of agonists, and monitored by Aggro-Link software for at least 6 min.
(§3) To study the aggregatory potency of ADP, the concentration-response (0.3-10 μM) curves were generated. Collagen at different concentrations (2-5 μg/ml) was also used to induce platelet aggregation. Submaximal concentrations of agonists, i.e. the concentrations that gave approximately 95% of the maximal aggregation were used to study the effects of inhibitors of aggregation. Aspirin and aspirin prodrugs was incubated for various intervals prior to the addition of aggregating agents.
(§4) Eserine (in DMSO, 10 μM, giving a final concentration≦0.25% DMSO, which pilot studies had determined not to affect platelet aggregation) was preincubated with PRP or WP for 5 min in the aggregometer with stirring at 900 r.p.m. before the addition of test compounds (ST0701-05), which were incubated in PRP or WP for a further 10 min prior to the addition of an agonist (10 μM ADP or 5 μg/ml Collagen) to induce platelet aggregation.

TxB2 = TxB2 suppression after single oral gavage dose; format: in vivo, cynomolgus monkey; details: for TxB2 suppression (TxB2 levels as percentage of baseline), in words: Phase 2A, single oral gavage, ST0702 9.6 mg/kg, aspirin 4.2 mg/kg, 1 and 24 hours post dosing; for TxB2 suppression, % complete: Phase 2B, at 24 hours
[3] = Plasma pharmacokinetics of aspirin and metabolites after single oral gavage dose; format: in vivo, cynomolgus monkey
Experimental: The objectives of this study are to determine the comparative clinical efficacy as determined by TxB2 suppression with single oral gavage dose administration of Aspirin, ST0702 and ST0702 Micronised to the cynomolgus monkey. Aspirin pharmacokinetics were compared using Area Under the Curve (AUC) calculations.
The objectives of this study are to determine the comparative pharmacokinetics of ST0702 at 9.6 and 4.8 mg/Kg with single oral gavage dose administration to the cynomolgus monkey and to determine dose-response effects.
Although the half life of the Isosorbide 2 salicylate 5 nicotinate metabolite is very short in-vitro, we investigated the serum taken from Cynomologus Monkeys participating in Study 2B above. The comparative pharmacokinetics of Isosorbide 2 salicylate 5 nicotinate from Monkeys receiving a single oral gavage dose of micronized ST0702 at 9.6 and 4.8 mg/Kg were evaluated. The concentrations of the breakdown products of ISANA were quantified using LCMS methods.
Animals are acclimated to the oral gavage procedure for at least 3 days prior to the commencement of dose formulation administration. Deionized water is administered by oral gavage using a disposable catheter attached to a plastic syringe at a dose volume of 5 mL/kg. Animals are treated at approximately the same time on each dosing day. Dose formulations are administered by oral gavage using a disposable catheter attached to a plastic syringe. Following each daily dose, the gavage tube is rinsed with 6 mL of Ultra Pure water into the animal's stomach. Each animal will be dosed with a clean gavage tube on each dosing occasion. The dosing volume is 10 mL/kg. Each actual volume administered will be based on the most recent practical body weight of each animal. The dose formulations will be stirred continuously during dose administration.
Samples are mixed gently and placed on crushed wet ice until centrifugation, which are carried out as soon as practical. The samples are centrifuged for approximately 10 minutes in a refrigerated centrifuge (approximately 4° C.) at 2700 rpm. The resultant plasma are separated, transferred to uniquely labeled clear polypropylene tubes, and frozen immediately over dry ice and transferred to a freezer set to maintain −80° C. The plasma samples are transferred to the bioanalytical laboratory at the Testing Facility.
Plasma samples are analyzed for concentration of Aspirin, Salicylic Acid and Nicotinic Acid using a qualified analytical procedure. Analysis are performed by LC MS/MS under Analytical Procedure. Data collection is performed using Analyst from AB Sciex. […]

[4] = test system: platelet rich plasma (PRP); experiment: ADP-induced platelet aggregation in PRP; format: cell-based, human; details: ODQ 10 μM, ADP 10 μM, PRP
Experimental: as §1, §2, §3, §4
1H-[1,2,4]Oxadiazolo[4,3-a]quinoxalin-1-one (ODQ, dissolved in 100% DMSO, used at a final concentration of 10 μM, which gave a final concentration not more than 0.25% DMSO) was preincubated with PRP or WP for 5 min in the aggregometer with stirring at 900 r.p.m. before the addition of test compounds (ST0701-05), which were incubated in PRP or WP for a further 10 min prior to the addition of an agonist (10 μM ADP or 5 μg/ml collagen) to induce platelet aggregation.
Eserine (10 μM) was incubated with PRP for 5 min in the aggregometer with stirring at 900 r.p.m. before the addition of test compound ST0702 salicylate (500 μM), which was incubated in PRP for a further 10 min prior to the addition of the agonist ADP (10 μM) to induce platelet aggregation.

washed platelets (WP) = experiment: Collagen-induced platelet aggregation in washed platelets (light aggregometry); format: cell-based, human; details: WP, collagen 2 μg/ml, PMSF up to 100 μM
Experimental: as §1, §2, §3
To study the involvement of plasma BuChE in the activation of ST0701, purified BuChE (3 U/ml) was incubated with WP for 5 min in the aggregometer with stirring at 900 r.p.m. before the addition of the test compounds ST0701 which was incubated with the WP for a further 10 min, prior to the addition of collagen (5 ug/ml).
as §4
Phenylmethylsulphonylfluoride (PMSF) 20, 50 and 100 μM dissolved in EtOH (<0.2% EtOH, which pilot studies had determined not to affect platelet aggregation) was preincubated in WP in the aggregometer for 5 min with stirring at 900 r.p.m. before the addition of test compound ST0702 to the WP, which was further incubated for 10 min prior to the addition of collagen (2 μg/ml) to induce platelet aggregation.

59M cells [5] = experiment: Tumour cell-induced platelet aggregation (TCIPA), static conditions, 59M; format: cell-based, human; details: static, WP, 300 and 500 μM, 59M 1×10^3/ml
From the text: ISAS meanwhile is hydrolysed to aspirin and salicylic acid. […] The structure of platelet-tumor cell aggregates was studied using phase-contrast microscopy (Alonso-Escolano et al., 2004; Jurasz et al., 2001). […] Aliquots of each sample were then taken for phase-contrast microscopy examination using an Olympus CKX41 microscope (Olympus America Inc., […].). Photomicrographs were captured using a digital camera and MicroFire (Olympus America Inc.) software (Alonso-Escolano et al., 2004; Jurasz et al., 2001).

59M cells [6] = experiment: Flow-mediated TCIPA using an ultrasound standing wave trap; format: cell-based, human; details: 500 μM, 59M cell cluster
From the text: The ultrasound trap had three essential features: a transducer (Ferroperm, Kvistgard, Denmark) in a housing of radial symmetry, an aqueous phase and a reflector that provided optical access from above. The trap was driven with a function generator (Hewlett Packard 33120A, UK). Microscopic observation occurred with a fast, high-resolution XM10 camera (Soft Imaging System, SIS, GmbH) mounted on an Olympus BX51M reflection epi-fluorescence microscope. Images were captured by a standard PC equipped with the Cell-D image acquisition software (Soft Imaging System, SIS, GmbH).
The experimental procedure was as follows: 59M cells were introduced into the trap, the acoustic field (2.13 MHz, 0.85 MPa) was initiated and cell clusters were allowed to form. Clusters remained levitated in suspension for 10 min. Washed platelets (2.5×10^8/ml) were introduced into the trap at a flow rate of 3 μl/min. Perfusion of washed platelets around the cluster proceeded following initial adhesion of platelets to the periphery of the cluster.
To study the effect of aspirin and aspirin prodrugs in TCIPA, washed platelets were pre-incubated for 10 min at room temperature with the inhibitors: aspirin, nicotinate, ISAS, ISMNA, ortho and meta (all at a concentration of 500 μM), prior to their introduction into the ultrasound trap. […] The cell cluster-platelet aggregate remained under microscopic observation for further 10 min (the upper time limit established in the current study) under continuous flow conditions. Further experiments were performed with ST0702 salicylate (500 μM).

P-selectin = experiment: Flow cytometry of platelet P-selectin during TCIPA induced by 59M cells; format: cell-based, human; details: 300 μM

Compound: O=[N+]([O-])c1ccc(OP(=O)(O)Oc2ccc([N+](=O)[O-])cc2)cc1 [BNPP, bis-p-nitrophylphosphate]
- effect on NPA/PNA activity of WP or lysed platelets [1]: no significant effect

Compound: O=C(O)CN(CCN(CC(=O)O)CC(=O)O)CC(=O)O [EDTA, ethylenediaminetetraacetic acid]
- effect on NPA activity of WP [1]: no effect

Compound: CC(C)NP(=O)(NC(C)C)OP(=O)(NC(C)C)NC(C)C [Iso-OMPA, tetraisopropylpyrophosphoramide]
- effect on NPA/PNA activity of WP or lysed platelets [1]: no effect

Compound: O[C@@H]1CO[C@H]2[C@@H]1OC[C@@H]2O [Isosorbide]
- inhibition of collagen induced aggregation by hydrolysis products [2]: None of the hydrolysis products significantly inhibited aggregation

- % of aspirin AUC ([3]; Phase 2B, Micronised ST0702 equimolar dose vs aspirin 4.2 mg/Kg): 62%
- expected aspirin delivered in-vivo ([3]; Studies 2A and 2B together, relative to equivalent aspirin): 58-62%
Compound: CC(=O)Oc1ccccc1C(=O)OC1COC2C(OC(=O)c3cccnc3)COC12 (stereo not shown) [Micronized ST0702, isosorbide-2-aspirinate-5-nicotinate]
- TxB2 suppression (TxB2 levels as percentage of baseline), in words (TxB2): no difference between aspirin and micronized ST0702
- TxB2 suppression (TxB2 levels as percentage of baseline), in words (TxB2; listed as micronised ISANA): as effective as equimolar doses of aspirin
- TxB2 suppression, % complete (TxB2; 4.8 mg/Kg oral): 47%
- TxB2 suppression, % complete (TxB2; 9.6 mg/Kg oral): 70%

Compound: O=c1onc2cnc3ccccc3n12 [ODQ, 1H-[1,2,4]oxadiazolo[4,3-a]quinoxalin-1-one, reference compound]
- inhibition of ADP induced aggregation when incubated alone [4]: some inhibition

Compound: O=S(=O)(F)Cc1ccccc1 [PMSF, phenylmethylsulphonyl fluoride]
- effect of PMSF alone on collagen-induced aggregation (washed platelets (WP)): no significant effect
- inhibition of NPA activity in WP ([1]; at 10 μM): 50%
- inhibition of NPA activity in WP ([1]; at 100 μM): almost completely inhibited

Compound: O=C(O[C@H]1CO[C@H]2[C@@H]1OC[C@H]2OC(=O)c1ccccc1O)c1ccccc1O [isosorbide-2,5-disalicylate]
- inhibition of collagen induced aggregation by hydrolysis products [2]: None of the hydrolysis products significantly inhibited aggregation
- attenuation of aspirin's inhibitory effect on co-incubation ([2]; co-incubated with aspirin, 50-500 μM, non-significant trend): ≤ 10%

Compound: O=C(O[C@@H]1CO[C@H]2[C@H]1OC[C@@H]2O)c1ccccc1O [isosorbide-5-salicylate]
- inhibition of collagen induced aggregation by hydrolysis products [2]: None of the hydrolysis products significantly inhibited aggregation

Compound: CC(=O)Oc1ccccc1C(=O)O[C@H]1CO[C@H]2[C@@H]1OC[C@H]2OC(=O)c1cccc(CO[N+](=O)[O-])c1 [metanitrate]
- inhibition of TCIPA induced by 59M (59M cells [5]): inhibited
- inhibition of TCIPA induced by 59M (59M cells [5]; listed as Meta): able to inhibit
- inhibition of TCIPA under flow conditions (platelet-tumour cell disruption) (59M cells [6]): did not interfere
- 59M-mediated increase in platelet surface P-selectin (P-selectin): significantly (P<0.05, n=4) reduce

Compound: O=C(O)c1ccccc1O [salicylic acid]
- inhibition of collagen induced aggregation by hydrolysis products [2]: None of the hydrolysis products significantly inhibited aggregation
